Drawing on PubChem BioAssay AID248 (DTP/NCI, 2004), this text covers T/C for 19 molecules.

For this assay, the system named is L1210 leukemia ip in BDF1 mice, survival T/C. The experiment in a line: NCI In Vivo Anticancer Drug Screen. Data for tumor model L1210 Leukemia (intraperitoneal) in B6D2F1 (BDF1) mice. Conditions: endpoint: mean survival time, higher = longer survival. In outline:
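Survival endpoint. Drug-treated group vs vehicle group, expressed as T divided by C. Tumor passaged by transplantation.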

Setting [1] is: dose: 100.0 mg/kg/injection, schedule: Q04DX003 (ip), vehicle: saline with Tween-80.
Where [2] appears, read: dose: 50.0 mg/kg/injection, schedule: Q01DX009 (ip), vehicle: Klucel (hydroxypropylcellulose) (HPC).
[3] abbreviates: dose: 50.0 mg/kg/injection, schedule: Q04DX003 (ip), vehicle: Klucel (hydroxypropylcellulose) (HPC).
Setting [4] is: dose: 100.0 mg/kg/injection, schedule: Q01DX001 (ip), vehicle: Klucel (hydroxypropylcellulose) (HPC).
Where [5] appears, read: dose: 100.0 mg/kg/injection, schedule: Q04DX003 (ip), vehicle: Klucel (hydroxypropylcellulose) (HPC).
Setting [6] is: dose: 200.0 mg/kg/injection, schedule: Q01DX001 (ip), vehicle: Klucel (hydroxypropylcellulose) (HPC).
Setting [7] is: dose: 200.0 mg/kg/injection, schedule: Q04DX003 (ip), vehicle: Klucel (hydroxypropylcellulose) (HPC).
[8] abbreviates: dose: 100.0 mg/kg/injection, schedule: Q01DX009 (ip), vehicle: Klucel (hydroxypropylcellulose) (HPC).
Setting [9] is: dose: 200.0 mg/kg/injection, schedule: Q01DX009 (ip), vehicle: Klucel (hydroxypropylcellulose) (HPC).
Setting [10] is: dose: 400.0 mg/kg/injection, schedule: Q04DX003 (ip), vehicle: Klucel (hydroxypropylcellulose) (HPC).
The mark [11] stands for this setting: dose: 100.0 mg/kg/injection, schedule: Q01DX001 (ip), vehicle: saline.
Setting [12] is: dose: 200.0 mg/kg/injection, schedule: Q01DX001 (ip), vehicle: saline.
[13] abbreviates: dose: 400.0 mg/kg/injection, schedule: Q01DX001 (ip), vehicle: saline.
Where [14] appears, read: dose: 100.0 mg/kg/injection, schedule: Q01DX009 (ip), vehicle: other.
[15] abbreviates: dose: 200.0 mg/kg/injection, schedule: Q01DX009 (ip), vehicle: other.

Where “and” joins values, the source holds several entries; their conditions need not be identical. Equal values may be shown once. Toxic doses and inconclusive results are not listed.

For `c1ccc2c(c1)OCC(CNC1CCCCC1)O2` (configuration not stated), the T/C was 100 % of control (dose: 12.5 mg/kg/injection, schedule: Q04DX003 (ip), vehicle: saline with Tween-80); 94 % of control and 100 % of control (dose: 25.0 mg/kg/injection, schedule: Q04DX003 (ip), vehicle: saline with Tween-80); 94 % of control (dose: 50.0 mg/kg/injection, schedule: Q04DX003 (ip), vehicle: saline with Tween-80); 98 % of control and 100 % of control under setting [1].

With `CCSCC1OC(n2cnc3c(N)nc(F)nc32)C(O)C1O` (configuration not stated), the T/C is, setting by setting: (dose: 25.0 mg/kg/injection, schedule: Q01DX001 (ip), vehicle: Klucel (hydroxypropylcellulose) (HPC)) 98 % of control; (dose: 25.0 mg/kg/injection, schedule: Q01DX009 (ip), vehicle: Klucel (hydroxypropylcellulose) (HPC)) 98 % of control; (dose: 25.0 mg/kg/injection, schedule: Q04DX003 (ip), vehicle: Klucel (hydroxypropylcellulose) (HPC)) 97 % of control; (dose: 50.0 mg/kg/injection, schedule: Q01DX001 (ip), vehicle: Klucel (hydroxypropylcellulose) (HPC)) 104 % of control; under setting [2], 96 % of control; under setting [3], 103 % of control. For the same molecule, the T/C under setting [4] was 97 % of control and 102 % of control; the T/C under setting [5] is 92 % of control; the T/C under setting [6] was 86 % of control.

For the molecule `S=C(S)N1CCC(CCCC2CCN(C(=S)S)CC2)CC1`, the T/C (dose: 100.0 mg/kg/injection, schedule: Q01DX009 (ip), vehicle: saline with Tween-80) is 88 % of control; the T/C under setting [1] is 100 % of control; the T/C (dose: 200.0 mg/kg/injection, schedule: Q01DX009 (ip), vehicle: saline with Tween-80) was 88 % of control; the T/C (dose: 200.0 mg/kg/injection, schedule: Q04DX003 (ip), vehicle: saline with Tween-80) was 89 % of control; the T/C (dose: 400.0 mg/kg/injection, schedule: Q04DX003 (ip), vehicle: saline with Tween-80) was 105 % of control.

Regarding `Cc1ccc(C)c(N2C(=O)C(=O)N(c3cc(C)ccc3C)P2(=O)N(CCCl)CCCl)c1`, the T/C (dose: 18.0 mg/kg/injection, schedule: Q01DX Z (ip), vehicle: carboxymethylcellulose (CMC)) was 101 % of control; the T/C (dose: 36.0 mg/kg/injection, schedule: Q01DX Z (ip), vehicle: carboxymethylcellulose (CMC)) is 90 % of control; the T/C (dose: 72.0 mg/kg/injection, schedule: Q01DX Z (ip), vehicle: carboxymethylcellulose (CMC)) was 93 % of control; the T/C (dose: 145.0 mg/kg/injection, schedule: Q01DX Z (ip), vehicle: carboxymethylcellulose (CMC)) was 96 % of control.

With `O=C(O)C(=O)NCc1cnccn1`, the T/C (dose: 25.0 mg/kg/injection, schedule: Q01DX009 (ip), vehicle: water) was 96 % of control; the T/C (dose: 50.0 mg/kg/injection, schedule: Q01DX009 (ip), vehicle: water) is 97 % of control; the T/C (dose: 100.0 mg/kg/injection, schedule: Q04DX003 (ip), vehicle: water) is 96 % of control.

In the case of `CCN(CC)CCCC(C)Nc1cc(OC)cc2cccnc12` (configuration not stated), the T/C is 93 % of control (dose: 10.0 mg/kg/injection, schedule: Q01DX009 (ip), vehicle: Klucel (hydroxypropylcellulose) (HPC)); 100 % of control (dose: 20.0 mg/kg/injection, schedule: Q01DX001 (ip), vehicle: Klucel (hydroxypropylcellulose) (HPC)); 96 % of control (dose: 20.0 mg/kg/injection, schedule: Q01DX009 (ip), vehicle: Klucel (hydroxypropylcellulose) (HPC)); 100 % of control (dose: 40.0 mg/kg/injection, schedule: Q01DX001 (ip), vehicle: Klucel (hydroxypropylcellulose) (HPC)); 96 % of control (dose: 40.0 mg/kg/injection, schedule: Q01DX009 (ip), vehicle: Klucel (hydroxypropylcellulose) (HPC)).

Turning to `NC(=S)N/N=C1/c2ccccc2-c2cc(Br)ccc21`, the T/C under setting [3] was 106 % of control, the T/C under setting [5] is 97 % of control and the T/C under setting [7] was 100 % of control.

For `Cc1cc([N+](=O)[O-])ccc1NC(=O)c1ccccc1`, the T/C reads like this: (dose: 100.0 mg/kg/injection, schedule: Q04DX003 (ip), vehicle: acetone) 94 % of control; (dose: 200.0 mg/kg/injection, schedule: Q04DX003 (ip), vehicle: acetone) 100 % of control; (dose: 400.0 mg/kg/injection, schedule: Q04DX003 (ip), vehicle: acetone) 93 % of control.

Consider `CCN(CC)c1ccc(/C=C/c2ccncc2)cc1`, for which the T/C is 93 % of control under setting [8]; 104 % of control under setting [5]; 92 % of control under setting [9]; 96 % of control under setting [7]; 90 % of control (dose: 400.0 mg/kg/injection, schedule: Q01DX009 (ip), vehicle: Klucel (hydroxypropylcellulose) (HPC)); 93 % of control under setting [10].

With `CCCN(CCC)CCCCN(CCC)CCCN(CCC)CCC`, the T/C under setting [11] was 107 % of control and the T/C under setting [12] was 94 % of control.

Regarding `CCCC(=O)Oc1ccc(C(C)(C)CC(C)(C)C)cc1`, the T/C by setting is: under setting [11], 94 % of control; under setting [12], 98 % of control; under setting [13], 100 % of control.

Take `Nc1ncncc1-c1ccccc1[N+](=O)[O-]`: the T/C reads like this: under setting [2], 98 % of control; under setting [8], 98 % of control; under setting [9], 102 % of control.

With `COC(=O)C(Cc1ccc(N(CCCl)CCCl)cc1)N=NNc1[nH]ncc1C(N)=O` (configuration not stated), the T/C was 106 % of control (dose: 19.0 mg/kg/injection, schedule: Q01DX001 (ip), vehicle: other); 124 % of control (dose: 38.0 mg/kg/injection, schedule: Q01DX001 (ip), vehicle: other); 100 % of control (dose: 75.0 mg/kg/injection, schedule: Q01DX001 (ip), vehicle: other); 155 % of control (dose: 150.0 mg/kg/injection, schedule: Q01DX001 (ip), vehicle: other); 117 % of control (dose: 300.0 mg/kg/injection, schedule: Q01DX001 (ip), vehicle: other).

As for `CC(C)(C)C1=CC(=O)C(Br)=C(N2C3C4CCC(C4)C32)C1=O` (configuration not stated), the T/C under setting [4] is 110 % of control; the T/C under setting [6] was 96 % of control; the T/C (dose: 400.0 mg/kg/injection, schedule: Q01DX001 (ip), vehicle: Klucel (hydroxypropylcellulose) (HPC)) is 94 % of control.

`Nc1ccccc1Nc1ccc(-c2ccc(Nc3ccccc3N)cc2)cc1`: the T/C reads like this: under setting [11], 94 % of control; under setting [12], 100 % of control; under setting [13], 92 % of control.

With `c1cc2c(c(NC3=NCCCS3)c1)CCCC2`, the T/C was 102 % of control under setting [8]; 97 % of control under setting [5]; 96 % of control under setting [9]; 95 % of control under setting [7]; 90 % of control under setting [10].

Consider `CCCOP(=S)(NCCCOC)OCCC`, for which the T/C reads like this: (dose: 50.0 mg/kg/injection, schedule: Q01DX009 (ip), vehicle: other) 94 % of control; (dose: 50.0 mg/kg/injection, schedule: Q04DX003 (ip), vehicle: other) 95 % of control; (dose: 100.0 mg/kg/injection, schedule: Q01DX001 (ip), vehicle: other) 96 % of control; under setting [14], 100 % of control; (dose: 100.0 mg/kg/injection, schedule: Q04DX003 (ip), vehicle: other) 95 % of control; (dose: 200.0 mg/kg/injection, schedule: Q01DX001 (ip), vehicle: other) 102 % of control. In addition, the T/C was 94 % of control under setting [15] and 97 % of control (dose: 200.0 mg/kg/injection, schedule: Q04DX003 (ip), vehicle: other).

`O=C(Nc1ccccc1)N1CCN=C1C1CCCc2ccccc21` (configuration not stated): the T/C is 89 % of control (dose: 100.0 mg/kg/injection, schedule: Q04DX002 (ip), vehicle: saline with Tween-80); 89 % of control (dose: 200.0 mg/kg/injection, schedule: Q04DX002 (ip), vehicle: saline with Tween-80); 86 % of control (dose: 400.0 mg/kg/injection, schedule: Q04DX002 (ip), vehicle: saline with Tween-80).

Turning to `CCOc1cc(OCC)c(C=O)c(OCC)c1`, the T/C is, setting by setting: under setting [14], 96 % of control; under setting [12], 88 % of control; under setting [15], 94 % of control; under setting [13], 102 % of control; (dose: 400.0 mg/kg/injection, schedule: Q01DX009 (ip), vehicle: other) 97 % of control.
